Read-outs that look alike come from different tables or passages of the source.
What was measured:
NOX (NADPH oxidase) = molecular target: T1, NOX (NADPH oxidase) (Homo sapiens, UniProt P04839); experiment: NOX activity measurement in a cell-free system using a homogenate of differentiated HL-60 cells (NADPH consumption, fluorometry); type: biochemical; details: for NOX inhibitory activity (distribution %): share of the black ginger extract's NOX inhibitory activity per compound
T1 construct: endogenous in cells; host or cells: HL-60 cells differentiated with 1% DMSO, used as a sonicated homogenate supernatant (A1) or as viable cells (A2)
T1 sequence (P04839 2-570 limits assumed): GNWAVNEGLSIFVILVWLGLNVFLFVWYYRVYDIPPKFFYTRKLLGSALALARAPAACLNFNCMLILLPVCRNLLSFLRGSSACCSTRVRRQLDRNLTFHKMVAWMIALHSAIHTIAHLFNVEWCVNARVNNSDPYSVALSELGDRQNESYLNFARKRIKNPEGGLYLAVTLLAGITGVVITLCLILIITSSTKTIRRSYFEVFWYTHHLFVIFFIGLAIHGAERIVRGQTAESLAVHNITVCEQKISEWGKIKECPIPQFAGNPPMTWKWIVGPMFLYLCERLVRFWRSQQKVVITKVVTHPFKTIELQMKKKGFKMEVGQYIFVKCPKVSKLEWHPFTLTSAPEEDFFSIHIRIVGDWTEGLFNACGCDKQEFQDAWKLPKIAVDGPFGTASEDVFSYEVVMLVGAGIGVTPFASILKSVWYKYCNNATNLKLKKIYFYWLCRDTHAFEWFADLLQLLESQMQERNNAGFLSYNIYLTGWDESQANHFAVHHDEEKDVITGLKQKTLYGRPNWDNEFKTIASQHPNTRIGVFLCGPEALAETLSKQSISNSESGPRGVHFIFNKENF
T1 sequence (P13498 2-195 partner limits assumed): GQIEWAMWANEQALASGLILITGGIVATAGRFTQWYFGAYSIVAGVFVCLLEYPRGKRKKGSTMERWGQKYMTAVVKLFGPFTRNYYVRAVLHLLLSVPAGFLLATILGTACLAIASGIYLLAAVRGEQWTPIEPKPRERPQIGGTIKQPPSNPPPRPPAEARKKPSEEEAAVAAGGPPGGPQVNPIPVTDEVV
From the text: Human myeloid leukemia cell HL-60 repeats proliferation in an undifferentiated state but upon addition of DMSO (dimethyl sulfoxide), retinoic acid or the like, it is known to differentiate into mature granulocytes and lose the ability to proliferate, as accompanied by intracellular expression of NOX (NADPH oxidase) which also serves as an index for differentiation; the expressed NOX can be utilized as an enzyme source for evaluating NOX inhibitory activity.
To induce differentiation into NOX expressing granulocytes, undifferentiated HL-60 cells cultured in a 10% FBS supplemented RPMI 1640 medium were suspended in a 1% DMSO containing, 10% FBS supplemented RPM 11640 medium to give a density of 5×10^5 cells/ml, and the suspension was distributed among Petri dishes (i.d. 10 cm) in 15 ml portions and cultured in a CO2 incubator (37° C.) for three days; thereafter, 10 ml of a 1% DMSO containing, 10% FBS supplemented RPM 11640 medium was added into each of the Petri dishes and culture was performed for an additional three days, thus yielding differentiated HL-60 cells in which NOX was expressed. As described below, the differentiated HL-60 cells, either as a homogenate or in a viable state, were subjected to NOX activity measurement.
After being cooled with ice, the suspension was treated with a sonicator (Bioruptor UCD-250 HSA; product of Cosmo Bio Co., Ltd.) by repeating three cycles of a process under the condition of 4° C. or below that consisted of 20-sec disrupting at maximum power and 30-sec interval cooling, whereupon a cell homogenate was obtained. The homogenate was centrifuged at 1000 g for 4 minutes to remove debris; to the resulting supernatant, nine volumes of a reaction buffer (65 mM phosphate buffered solution containing 1 mM EGTA, 10 μM FAD and 170 mM sucrose; pH 7.0) were added to prepare a homogenate's supernatant for NOX activity measurement (equivalent to 1×10^7 cells/ml).
For reaction with NOX, 50 μl of the above-described cell homogenate was poured into each well of a 96-well microplate and after adding 25 μl of a 0.5 mM SDS solution as a NOX activator and 25 μl of a 0.4 mM NADPH solution as a substrate, the reaction was carried out at 25° C. for 30-90 minutes. The NOX activity was determined by measuring the rate of NADPH consumption through fluorometry (Ex: 355 nm/Em: 460 nm).

NFκB = NFκB inhibiting action: nitrous acid production in LPS-stimulated RAW 264.7 cells (Griess reagent); type: cell-based; details: Mus musculus, RAW264.7, 24 h; read-out: NFκB inhibition IC50
Procedure: It is known that when macrophage-like RAW 264.7 cells are stimulated with LPS (lipopolysaccharide), NFκB is activated, whereby the expression of iNOS (inducible NO synthetase) is enhanced, causing nitrous acid to accumulate in the culture broth due to the enzymatic activity of iNOS; the activation of NFκB can therefore be evaluated by measuring the buildup of nitrous acid in the culture broth.
RAW 264.7 cells were cultured in a 10% FBS supplemented RPMI 1640 culture broth. The cells were then suspended in the same culture broth to give a density of 4×10^5 cells/ml; the suspension was distributed on a 96-well microplate in 100 μl portions per well and subjected to pre-culture (in a CO2 incubator) for 24 hr. […] To measure NFκB inhibitory activity, a DMSO solution of each test sample was dissolved in the foregoing culture broth to make 3-fold serial dilutions having DMSO concentrations of 1% and less and absorbance was measured with and without adding the stimulant LPS.

[1] = Example 4, cell-free system using a homogenate of differentiated HL-60 cells, methoxyflavonoid comparison, read-out: IC50 (μM), NOX inhibitory activity
[2] = cell-free system using a homogenate
[3] = Example 5, cell-free system using a homogenate, compounds extracted and fractionated from black ginger, read-out: NOX inhibition IC50

SMILES | IC50 (NOX (NADPH oxidase); [1]) [µM] | IC50 (NOX (NADPH oxidase); [3]) [µM] | IC50 (NFκB) [µM] | other results
COc1cccc(/C=C/C(=O)c2ccccc2O)c1OC [2,3-Dimethoxy-2′-hydroxychalcone] | > 100 | – | – | –
COc1ccc(CCC(=O)c2c(O)cc(OC)cc2O)cc1 [2′,6′-Dihydroxy-4,4′-dimethoxydihydrochalcone] | > 100 | – | – | –
COc1cc(O)c(C(=O)/C=C/c2ccccc2)c(O)c1 [2′,6′-Dihydroxy-4′-methoxychalcone] | > 100 | – | – | –
COc1ccc2c(=O)c(OC)c(-c3ccc(OC)c(OC)c3)oc2c1 [3,7,3′,4′-tetramethoxyflavone] | > 100 | – | – | –
CC(=O)c1cc2ccccc2oc1=O [3-Acetylcoumarin] | > 100 | – | – | –
O=c1cc(-c2ccc(O)c(O)c2)oc2ccccc12 [3′,4′-Dihydroxyflavone] | 75 | – | – | –
COc1ccc(-c2cc(=O)c3ccccc3o2)cc1OC [3′,4′-Dimethoxyflavone] | 15 | – | – | –
COc1ccc(/C=C/C(=O)c2ccccc2)cc1 [4-Methoxychalcone] | > 100 | – | – | –
COc1ccc(C(=O)/C=C/c2ccccc2)cc1 [4′-Methoxychalcone] | > 100 | – | – | –
COc1cc(-c2cc(=O)c3c(OC)c(OC)c(OC)cc3o2)cc(OC)c1OC [5,6,7,3′,4′,5′-Hexamethoxyflavone] | ~100 | – | – | –
COc1ccc(-c2cc(=O)c3c(OC)c(OC)c(OC)c(OC)c3o2)cc1OC [5,6,7,8,3′,4′-Hexamethoxyflavone] | 80 | – | – | NOX inhibitory activity (in words) (NOX (NADPH oxidase); [2]): not found to have any strong NOX inhibitory activity
COc1cc(OC)c2c(=O)cc(-c3cc(OC)c(OC)c(OC)c3)oc2c1 [5,7,3′,4′,5′-Pentamethoxyflavone] | > 100 | – | – | –
COc1ccc(-c2oc3cc(O)cc(O)c3c(=O)c2OC)cc1O [5,7,3′-Trihydroxy-3,4′-dimethoxyflavone] | ~100 | – | – | –
COc1cc(C2CC(=O)c3c(O)cc(O)cc3O2)cc(OC)c1OC (centres unmarked) [5,7-Dihydroxy-3′,4′,5′-trimethoxyflavanone] | > 100 | – | – | –
COc1cc(C)c2c(=O)c(-c3ccccc3)coc2c1 [5-Methyl-7-methoxy-isoflavone] | > 100 | – | – | –
O=c1cc(-c2ccc(O)c(O)c2)oc2c(O)c(O)ccc12 [7,8,3′,4′-Tetrahydroxyflavone] | ~100 | – | – | –
COc1ccc(-c2cc(=O)c3ccc(OC)c(OC)c3o2)cc1OC [7,8,3′,4′-Tetramethoxyflavone] | ~100 | – | – | –

SMILES | IC50 (NOX (NADPH oxidase); [1]) [µM] | IC50 (NOX (NADPH oxidase); [3]) [µM] | IC50 (NFκB) [µM] | other results
COc1cc2ccc(=O)oc2c(C(C)=O)c1OC [8-Acetyl-6,7-dimethoxycoumarin] | > 100 | – | – | –
COc1c(O)cc2ccc(=O)oc2c1C(C)=O [8-Acetyl-6-hydroxy-7-methoxycoumarin] | > 100 | – | – | –
CC(=O)c1c(O)ccc2ccc(=O)oc12 [8-Acetyl-7-hydroxycoumarin] | > 100 | – | – | –
COc1ccc2ccc(=O)oc2c1C(C)=O [8-Acetyl-7-methoxycoumarin] | > 100 | – | – | –
COc1cc(OC)c2c(=O)cc(-c3ccc(OC)c(OC)c3)oc2c1 [KPEt-21, 5,7,3′,4′-Tetramethoxyflavone] | 8 | 38 | 6 | NOX inhibitory activity (distribution %) (NOX (NADPH oxidase); Example 5): 12%; NOX inhibitory activity (in words) (NOX (NADPH oxidase); [2]): strong NOX inhibitory activity
COc1cc(OC)c2c(=O)c(OC)c(-c3ccc(OC)c(OC)c3)oc2c1 [KPEt-22, 3,5,7,3′,4′-Pentamethoxyflavone] | 23 | 70 | 32 | NOX inhibitory activity (distribution %) (NOX (NADPH oxidase); Example 5): 45%; NOX inhibitory activity (in words) (NOX (NADPH oxidase); [2]): strong NOX inhibitory activity
COc1cc(OC)c2c(=O)cc(-c3ccccc3)oc2c1 [KPEt-23, 5,7-Dimethoxyflavone] | – | 53 | 7 | NOX inhibitory activity (distribution %) (NOX (NADPH oxidase); Example 5): 19%
COc1ccc(-c2cc(=O)c3c(OC)cc(OC)cc3o2)cc1 [KPEt-25, 5,7,4′-Trimethoxyflavone] | – | 53 | 7 | NOX inhibitory activity (distribution %) (NOX (NADPH oxidase); Example 5): 21%
COc1cc(O)c2c(=O)c(OC)c(-c3ccc(OC)c(OC)c3)oc2c1 [KPEt-41, 5-hydroxy-3,7,3′,4′-Tetramethoxyflavone] | – | > 100 | 55 | –
COc1cc(OC)c2c(=O)c(OC)c(-c3ccccc3)oc2c1 [KPEt-261, 3,5,7-Trimethoxyflavone] | – | > 100 | 27 | –
COc1ccc(-c2oc3cc(OC)cc(OC)c3c(=O)c2OC)cc1 [KPEt-262, 3,5,7,4′-Tetramethoxyflavone] | – | > 100 | 32 | –
COc1cc(O)c2c(=O)cc(-c3ccccc3)oc2c1 [KPEt-421, 5-hydroxy-7-Methoxyflavone] | – | > 100 | 42 | –
COc1ccc(-c2cc(=O)c3c(O)cc(OC)cc3o2)cc1 [KPEt-422, 5-hydroxy-7,4′-Dimethoxyflavone] | – | > 100 | 56 | –
COc1cc(O)c2c(=O)c(OC)c(-c3ccccc3)oc2c1 [KPEt-431, 5-hydroxy-3,7-Dimethoxyflavone] | – | > 100 | 29 | –
COc1ccc(-c2oc3cc(OC)cc(O)c3c(=O)c2OC)cc1 [KPEt-432, 5-hydroxy-3,7,4′-Trimethoxyflavone] | – | > 100 | 30 | –
CC(=O)OC(C)(C)[C@@H]1Cc2c(ccc3ccc(=O)oc23)O1 [o-Acetylcolumblanetin] | 19 | – | – | –

Source: US20170071902A1, “NOX INHIBITOR AND NFkB INHIBITOR CONTAINING METHOXYFLAVONE” (SUNTORY HOLDINGS LIMITED, priority 2014, published 2017)
